Earlier results, collected in article PMC3085280 (Tetrahedron, 2009).

Test system: κ-opioid

COC(=O)[C@@H]1C[C@H](OC(C)=O)C(=O)[C@H]2[C@@]1(C)CC[C@H]1C(=O)O[C@H](c3ccoc3)C[C@]21C [Compound 1, Salvinorin A]
κ-opioid agonist activity: potent and selective κ-opioid agonist
